From ChEMBL document CHEMBL1139567, “Synthesis and biological evaluation of sulfonamidooxazoles and beta-keto sulfones: selective inhibitors of 11beta-hydroxysteroid dehydrogenase type I” (Bioorg Med Chem Lett, 2005)

Tests used:
[1] = target: 11-beta-hydroxysteroid dehydrogenase 1 (Homo sapiens, UniProt P28845); test: Inhibitory concentration against human 11-beta-hydroxysteroid dehydrogenase 1
[2] = target: T1, 11-beta-hydroxysteroid dehydrogenase type 2 (Homo sapiens, UniProt P80365); test: Inhibitory concentration against human 11-beta-hydroxysteroid dehydrogenase 2
T1 sequence (P80365 whole entry): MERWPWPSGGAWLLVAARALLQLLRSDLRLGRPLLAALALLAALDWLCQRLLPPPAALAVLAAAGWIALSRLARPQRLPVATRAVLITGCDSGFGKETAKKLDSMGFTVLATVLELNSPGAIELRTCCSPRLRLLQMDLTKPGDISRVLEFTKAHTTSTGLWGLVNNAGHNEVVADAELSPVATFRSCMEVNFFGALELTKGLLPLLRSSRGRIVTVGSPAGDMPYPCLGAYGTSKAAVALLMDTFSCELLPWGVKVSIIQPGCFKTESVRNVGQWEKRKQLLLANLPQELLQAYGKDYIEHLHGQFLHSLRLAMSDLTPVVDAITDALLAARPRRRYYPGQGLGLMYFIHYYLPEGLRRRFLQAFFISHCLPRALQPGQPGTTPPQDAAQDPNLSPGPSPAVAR

Sequence of 11-beta-hydroxysteroid dehydrogenase 1 (P28845 whole entry): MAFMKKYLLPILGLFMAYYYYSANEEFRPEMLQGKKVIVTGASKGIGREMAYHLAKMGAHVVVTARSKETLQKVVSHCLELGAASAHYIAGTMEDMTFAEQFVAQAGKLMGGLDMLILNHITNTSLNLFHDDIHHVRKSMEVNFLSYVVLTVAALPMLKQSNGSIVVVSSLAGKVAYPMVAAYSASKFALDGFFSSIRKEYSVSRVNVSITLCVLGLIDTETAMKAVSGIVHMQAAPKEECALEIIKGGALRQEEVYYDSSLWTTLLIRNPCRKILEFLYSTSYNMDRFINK

Structure (SMILES) | IC50 [1] | IC50 [2]
Cc1coc(NS(=O)(=O)c2cccc(Cl)c2C)n1 | 58.7 µM | 
Cc1c(Cl)cccc1S(=O)(=O)Nc1nc(-c2ccccc2)co1 | 17.3 µM | > 200 µM
O=C(CS(=O)(=O)c1ccccc1)c1ccc(C(F)(F)F)cc1 | 0.19 µM | > 200 µM
O=S(=O)(Nc1nc(-c2ccccc2)co1)c1ccccc1 | 23 µM | > 200 µM
O=S(=O)(Nc1nc(-c2ccc(-c3ccccc3)cc2)co1)c1ccccc1 | 2.3 µM | > 200 µM
CC(=O)N(C)c1ccc(S(=O)(=O)Nc2nc(C)c(C)o2)cc1 | 100 µM | > 200 µM
Cc1coc(NS(=O)(=O)c2cccc(Cl)c2CC(=O)O)n1 | > 100 µM | 
CCN(CC)C(=O)Cc1csc(NS(=O)(=O)c2cccc(Cl)c2C)n1 | 1.5 µM | > 200 µM
Cc1c(Cl)cccc1S(=O)(=O)Nc1nc(-c2ccc(C#N)cc2)co1 | 48 µM | > 200 µM
COC(=O)Cc1c(Cl)cccc1S(=O)(=O)Nc1nc(C)co1 | > 100 µM | 
O=S(=O)(Nc1nc(-c2ccc(C(F)(F)F)cc2)co1)c1ccccc1 | 9 µM | > 200 µM
